Laboratory results published in patent US10550079B2, “Artificial self-sufficient cytochrome P450s” (University of Florida Research Foundation, Incorporated, priority 2015, dated 2020).
“Also recorded” adds a separate entry of the source.

How the values were obtained:
TxtE-BM3R [1] = target: T1, TxtE-BM3R (UniProt C9ZDC6+P14779); assay: Substrate binding affinity by UV-Vis spectral titration, TxtE-BM3R; parameters: species or system S. scabies 87.22 / B. megaterium ATCC 14581; conditions: for binding affinity lowered compared with native substrate L-tryptophan: TxtE-BM3R; for Kd: […] enzyme, 25 mM Tris-HCl pH 8.0, for 4-F-DL-tryptophan total concentration of the racemic mixture used; for binding affinity to TxtE-BM3R compared with TxtE: tighter/higher than to TxtE
T1 construct: P450BM3 (CYP102A1) reductase domain BM3R with its Domcut-predicted native linker, from B. megaterium ATCC 14581 (GenBank J04832.1); made in house; host or cells: E. coli BL21 (DE3)-GOLD
Protocol: (§1) Purified TxtE and its fusion enzymes were spectrally analyzed following a previous protocol (Ding et al. 2008). Briefly, the absorbance spectra (400-600 nm) of TxtE variants (3 M) in Tris-HCl (25 mM, pH 8) buffer were recorded with a Shimadzu UV2700 dual beam UV-Vis spectrophotometer. The ferric heme of enzymes was then saturated with carbon monoxide (Airgas) through bubbling and the spectra of the saturated enzyme solutions were recorded. Immediately, sodium dithionite solution (30 μL, 0.5 M) was added to reduce ferric ion, and reduced spectra were taken subsequently. CO reduced difference spectra of all enzymes were created by subtracting the CO binding spectra from the reduced spectra. Data were further analyzed by GraphPad Prism 4. […] Not more than 10 μl of substrate stock solutions prepared in the above buffer were added to the sample cuvette with an interval of 0.5 μl, and the spectra were recorded from 300 nm to 500 nm each time. The equal volume of buffer was added to the reference cuvette. The changes in absorbance (ΔA) were determined by subtracting the absorbance at ˜420 nm from that at ˜390 nm. Data were then fitted to Michaelis-Menten equation using GraphPad Prism 4.
as §1, with “previous protocol.” for “previous protocol (Ding et al. 2008).”, “(3 μM)” for “(3 M)”, “to the” for “to Michaelis-Menten”, “equation of ΔA=ΔAmax[L]/(Kd+[L])” for “equation”

TxtE [2] = target: T2, TxtE (Streptomyces scabiei, UniProt C9ZDC6); parameters: inferred from the pET28 vector and Ni-NTA purification) (C); made in house; host or cells: E. coli BL21 (DE3)-GOLD; conditions: previous studies (Barry et al. 2012; Dodani et al. 2014); cited from earlier work
TxtE-BM3R [3] = target: T3, TxtE-BM3R (UniProt C9ZDC6); assay: Substrate binding affinity by UV-Vis spectral titration, TxtE-BM3R; parameters: species or system S. scabies 87.22 / B. megaterium ATCC 14581; conditions: Kd, […] enzyme, 25 mM Tris-HCl pH 8.0; for 4-F-DL-tryptophan total concentration of the racemic mixture used
T3 construct: P450BM3 (CYP102A1) reductase domain BM3R with its Domcut-predicted native linker, from B. megaterium ATCC 14581 (GenBank J04832.1); made in house; host or cells: E. coli BL21 (DE3)-GOLD
Protocol: as §1
as §1, with “previous protocol.” for “previous protocol (Ding et al. 2008).”, “(3 μM)” for “(3 M)”, “to the” for “to Michaelis-Menten”, “equation of ΔA=ΔAmax[L]/(Kd+[L])” for “equation”

TxtE-RhFRed [4] = target: T4, TxtE-RhFRed (Streptomyces scabiei, UniProt C9ZDC6); assay: Substrate binding affinity by UV-Vis spectral titration, TxtE-RhFRed; parameters: species or system S. scabies 87.22; conditions: […] enzyme, 25 mM Tris-HCl pH 8.0
T4 sequence (C9ZDC6 1-406): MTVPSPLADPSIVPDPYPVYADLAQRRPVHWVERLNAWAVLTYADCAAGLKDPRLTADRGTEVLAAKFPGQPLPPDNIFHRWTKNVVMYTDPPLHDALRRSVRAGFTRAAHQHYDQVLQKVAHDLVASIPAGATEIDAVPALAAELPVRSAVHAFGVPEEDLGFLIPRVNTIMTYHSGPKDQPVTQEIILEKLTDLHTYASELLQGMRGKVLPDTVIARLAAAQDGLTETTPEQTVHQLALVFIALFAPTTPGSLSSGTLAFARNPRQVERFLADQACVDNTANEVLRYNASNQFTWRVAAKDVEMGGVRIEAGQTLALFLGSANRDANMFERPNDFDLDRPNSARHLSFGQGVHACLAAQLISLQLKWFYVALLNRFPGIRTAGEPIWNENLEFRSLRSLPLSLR
T4 sequence (Q8KU27 445-773 partner): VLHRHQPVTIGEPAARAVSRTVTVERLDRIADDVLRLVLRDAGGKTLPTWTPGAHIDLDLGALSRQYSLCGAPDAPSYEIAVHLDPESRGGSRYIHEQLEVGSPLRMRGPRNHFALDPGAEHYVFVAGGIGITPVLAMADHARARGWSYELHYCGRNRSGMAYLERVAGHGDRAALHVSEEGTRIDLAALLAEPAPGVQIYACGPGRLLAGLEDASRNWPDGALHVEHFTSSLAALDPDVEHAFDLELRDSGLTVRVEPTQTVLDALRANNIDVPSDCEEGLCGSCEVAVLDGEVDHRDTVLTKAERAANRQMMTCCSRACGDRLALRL
Protocol: as §1, with “The equal volume of buffer was added to the reference cuvette.” left out, “Data were then fitted to Michaelis-Menten equation using GraphPad Prism 4.” left out
(§2) Purified TxtE and its fusion enzymes were spectrally analyzed following a previous protocol. Briefly, the absorbance spectra (400-600 nm) of TxtE variants (3 μM) in Tris-HCl (25 mM, pH 8) buffer were recorded with a Shimadzu UV2700 dual beam UV-Vis spectrophotometer. […] Data were further analyzed by GraphPad Prism 4. […]

TxtE-RhFRed [5] = target: T4, TxtE-RhFRed; assay: Substrate binding affinity by UV-Vis spectral titration, TxtE-RhFRed*; parameters: species or system S. scabies 87.22; conditions: […] enzyme, 25 mM Tris-HCl pH 8.0
Protocol: as §1, with “The equal volume of buffer was added to the reference cuvette.” left out, “Data were then fitted to Michaelis-Menten equation using GraphPad Prism 4.” left out
as §2

TxtE [6] = target: T2, TxtE; assay: Substrate binding affinity by UV-Vis spectral titration, wild type TxtE; parameters: inferred from the pET28 vector and Ni-NTA purification) (C); made in house; host or cells: E. coli BL21 (DE3)-GOLD; species or system S. scabies 87.22; conditions: […] enzyme, 25 mM Tris-HCl pH 8.0
Protocol: as §1, with “The equal volume of buffer was added to the reference cuvette.” left out, “Data were then fitted to Michaelis-Menten equation using GraphPad Prism 4.” left out
as §2

TxtE [7] = target: T2, TxtE; assay: Binding affinities of L-tryptophan and substituted tryptophan analogs (FIG. 29A)
Protocol: Binding affinities and relative nitration conversions for L-tryptophan and several substituted tryptophan analogs were also assessed (FIGS. 29A-29B). […] Furthermore, the nitration activity of TxtE and TxtEBM3R was assessed. In addition to substrate, enzyme reactions typically contained NADP+, an NADPH regeneration system (glucose and glucose dehydrogenase, GDH), spinach ferredoxin (Fer) and ferredoxin reductase (Frd) as redox partners, and 3-[2-hydroxy-1-(l-methylethyl)-2-nitrosohydrazinyl]-1-propanamine (NOC-5) as an NO donor. Reverse-phase UHPLC coupled with a PDA detector and liquid chromatography-mass spectrometry (LC-MS, ESI positive) was employed to detect the nitrated products (FIG. 29B).

[8] = Stability of NO donor NOC-5 at different pH values and temperatures; type: physicochemical
Protocol: The stability of NO donor NOC-5 was first examined. Its solution was incubated at different pH value (4.5 to 9.5) and temperatures (4 to 65° C.) for 30 min. It was then used as NO donor in the P450 nitration reactions. […] To determine pH effects on the activity of TxtE and TxtEBM3R, enzyme (1.5 μM) reactions were performed in 100 mM Tris-Cl or sodium phosphate with various pH values (4.5 to 9.5) at 20° C., 300 rpm for 30 min. To determine enzyme pH stability, 5 μL of 30 μM enzyme solutions were incubated at buffers with different pH value (4.5 to 9.5). After 15 minutes, other reaction components (95 μL) were mixed to initiate nitration reactions as described above. […] Products were quantitated by HPLC as described above. Conversion rate (%) was calculated by the equation of the area of under the 4-nitro-l-tryptophan peak/the total areas of both substrate and product peaks*100. […]
The stability of NO donor NOC-5 was first examined by incubating it in solutions of different pH values (4.5 to 9.5) and temperatures (4 to 65° C.) for 30 min. […] Products were quantitated by HPLC as described above. Peak area was determined with software installed in the Shimadzu Prominence UHPLC system. Conversion rate (%) was calculated as product (nmol)/product+substrate (nmol)×100 based on the standard curves of Trp and 4-NO2-Trp generated. […]

## NC(Cc1c[nH]c2cccc(F)c12)C(=O)O (racemic) [4-F-DL-tryptophan, 4-F-dl-tryptophan]
TxtE-BM3R [1]
  binding affinity lowered compared with native substrate L-tryptophan: about 8 times
  Kd: 189 ± 11.1 µM
  binding affinity to TxtE-BM3R compared with TxtE: slightly tightened

## N[C@@H](Cc1c[nH]c2ccc(F)cc12)C(=O)O [5-F-L-tryptophan, 5-F-l-tryptophan]
TxtE-BM3R [1]
  binding affinity lowered compared with native substrate L-tryptophan: ~3 times
  Kd: 84.2 ± 4.37 µM
  binding affinity to TxtE-BM3R compared with TxtE: slightly tightened
TxtE-BM3R [1]; listed as 5-F-l-tryptophan
  Kd: 84.2 ± 4.4 µM

## N[C@H](Cc1c[nH]c2ccccc12)C(=O)O [D-tryptophan]
TxtE [2]
  spectral changes induced in TxtE solution: unable to induce spectral changes

## N[C@@H](Cc1c[nH]c2ccccc12)C(=O)O [L-tryptophan]
TxtE-BM3R [3]
  Kd: 20.8 µM
TxtE-RhFRed [4]
  Kd: 18.2 µM
TxtE-RhFRed [5]
  Kd: 24.3 µM
TxtE [6]
  Kd: 24.8 µM

## N[C@H](CO)Cc1c[nH]c2ccccc12 [L-tryptophanol]
TxtE [7]
  binding affinity relative to L-tryptophan (FIG. 29A): significantly weakened interactions

## CC(C)N(CCCN)/[N+]([O-])=N/O [NOC-5, 3-(Aminopropyl)-1-hydroxy-3-isopropyl-2-oxo-1-triazene]
[8]; 4 to 65° C., 30 min
  stability at temperatures higher than 25° C.: decomposed quickly and significantly
[8]; pH 4.5 to 9.5, 30 min
  stability at different pH values: stable in all tested pH values; also recorded: stable over a broad pH range; also recorded: stable at all tested pH values

## O=C(O)C(=O)Cc1c[nH]c2ccccc12 [indole-3-pyruvate]
TxtE [7]
  binding affinity relative to L-tryptophan (FIG. 29A): significantly weakened interactions

## C[C@](N)(Cc1c[nH]c2ccccc12)C(=O)O [α-Me-Trp]
TxtE [7]
  binding affinity relative to L-tryptophan (FIG. 29A): significantly weakened interactions
